Test results reported in US8198311B2, “Modulators of glucocorticoid receptor, AP-1, and/or NF-κB activity and use thereof” (Bristol-Myers Squibb Company, priority 2006, dated 2012).

Key:
[1] = tested on: AP-1 induced transcriptional activity; test: Cellular Transrepressional Assay (AP-1 luciferase reporter in A549 cells, PMA-activated); assay type: cell-based; conditions: Homo sapiens, A549, 7 h, pAP-1-Luc, 10 ng/ml PMA, read-out: AP-1 (EC50, nM) (Cellular Transrepression Assay)
Procedure, shortened: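 A549 cells stably carrying a 7×AP-1-luciferase reporter, stimulated with 10 ng/ml PMA with or without compound (0.1 nM-40 μM) for 7 h. Luciferase luminescence read 10 min after reagent addition; repression is percentage decrease of PMA-alone signal, EC50 by curve fitting.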

[2] = molecular target: T1, human glucocorticoid receptor (Homo sapiens, UniProt P04150); test: Glucocorticoid Receptor Binding Assay (I), fluorescence polarization competitor kit (Fluormone GS Red); conditions: purified human recombinant full-length GR
T1 construct: purified human recombinant full-length glucocorticoid receptor (2 nM); purchased Invitrogen Part # 2893
T1 sequence (P04150 1-777): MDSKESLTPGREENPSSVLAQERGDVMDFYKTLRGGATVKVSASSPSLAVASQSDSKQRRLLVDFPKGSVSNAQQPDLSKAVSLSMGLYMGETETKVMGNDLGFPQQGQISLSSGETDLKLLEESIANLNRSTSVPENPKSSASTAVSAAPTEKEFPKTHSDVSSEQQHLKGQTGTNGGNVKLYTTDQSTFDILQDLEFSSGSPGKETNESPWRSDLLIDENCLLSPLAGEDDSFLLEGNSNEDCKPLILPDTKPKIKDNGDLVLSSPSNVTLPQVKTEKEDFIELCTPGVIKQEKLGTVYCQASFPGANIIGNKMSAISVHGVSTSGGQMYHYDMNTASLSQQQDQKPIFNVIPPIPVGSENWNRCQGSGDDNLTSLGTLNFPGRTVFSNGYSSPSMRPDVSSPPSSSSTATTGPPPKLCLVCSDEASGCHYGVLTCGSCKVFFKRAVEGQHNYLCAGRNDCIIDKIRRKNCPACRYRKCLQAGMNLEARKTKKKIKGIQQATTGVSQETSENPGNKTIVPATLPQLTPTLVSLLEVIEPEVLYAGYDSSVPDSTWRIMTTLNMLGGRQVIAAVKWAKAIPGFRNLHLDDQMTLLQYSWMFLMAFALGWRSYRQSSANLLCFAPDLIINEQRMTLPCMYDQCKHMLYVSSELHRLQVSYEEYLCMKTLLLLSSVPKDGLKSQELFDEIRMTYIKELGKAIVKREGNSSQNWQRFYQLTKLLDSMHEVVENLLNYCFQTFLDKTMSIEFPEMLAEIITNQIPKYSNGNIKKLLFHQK
Procedure: In order to assess the affinity of test compounds for the human glucocorticoid receptor, a commercially available kit was used (Glucocorticoid Receptor Competitor Assay Kit, Invitrogen Part # 2893). Briefly, purified human recombinant full-length glucocorticoid receptor (2 nM) was mixed with fluorescently labeled glucocorticoid (1 nM Fluormone GS Red) in the presence or absence of test compound. After two hour incubation at room temperature in the dark, the fluorescence polarization (FP) of the samples was measured. […] Test compounds were analyzed in the concentration range from 8.5E-05 μM to 5 μM.

| SMILES | EC50 [1] [nM] | Ki [2] [nM] |
| --- | --- | --- |
| CC(C)CC(c1ccc2c(cnn2-c2ccc(F)cc2)c1)C(C)(C)CNC(=O)NC1CCN(Cc2ccccc2)CC1 (stereo not shown) [Example 79, 1-(1-benzylpiperidin-4-yl)-3-(3-(1-(4-fluorophenyl)-1H-indazol-5-yl)-2,2,5-trimethylhexyl)urea] | 5000 | 11 |
| CC(C)CC(c1ccc2c(cnn2-c2ccc(F)cc2)c1)C(C)(C)CNC(=O)NC(CO)Cc1ccc(Cl)cc1 (stereo not shown) [Example 80, 1-(1-(4-chlorophenyl)-3-hydroxypropan-2-yl)-3-(3-(1-(4-fluorophenyl)-1H-indazol-5-yl)-2,2,5-trimethylhexyl)urea] | 234 | 3 |
| Cc1cc(C)c(S(=O)(=O)NCC(C)(C)C(CC(C)C)c2ccc3c(cnn3-c3ccc(F)cc3)c2)c(C)c1 (stereo not shown) [Example 81, N-(3-(1-(4-fluorophenyl)-1H-indazol-5-yl)-2,2,5-trimethylhexyl)-2,4,6-trimethylbenzenesulfonamide] | > 5000 | 8.7 |
| CC(CNS(C)(=O)=O)C(c1ccccc1)c1ccc2c(cnn2-c2ccc(F)cc2)c1 (stereo not shown) [Example 92, N-(3-(1-(4-fluorophenyl)-1H-indazol-5-yl)-2-methyl-3-phenylpropyl)methanesulfonamide] | 12 | 0.94 |
| CCS(=O)(=O)NCC(C)C(c1ccccc1)c1ccc2c(cnn2-c2ccc(F)cc2)c1 (stereo not shown) [Example 93, N-(3-(1-(4-fluorophenyl)-1H-indazol-5-yl)-2-methyl-3-phenylpropyl)ethanesulfonamide] | 5.6 | 0.92 |
| CC(CNS(=O)(=O)C(C)C)C(c1ccccc1)c1ccc2c(cnn2-c2ccc(F)cc2)c1 (stereo not shown) [Example 94, N-(3-(1-(4-fluorophenyl)-1H-indazol-5-yl)-2-methyl-3-phenylpropyl)propane-2-sulfonamide] | 12 | 0.73 |
| CCCS(=O)(=O)NCC(C)C(c1ccccc1)c1ccc2c(cnn2-c2ccc(F)cc2)c1 (stereo not shown) [Example 95, N-(3-(1-(4-fluorophenyl)-1H-indazol-5-yl)-2-methyl-3-phenylpropyl)propane-1-sulfonamide] | 27 | 1.2 |
| CC(CNS(=O)(=O)CCC(F)(F)F)C(c1ccccc1)c1ccc2c(cnn2-c2ccc(F)cc2)c1 (stereo not shown) [Example 96, 3,3,3-trifluoro-N-(3-(1-(4-fluorophenyl)-1H-indazol-5-yl)-2-methyl-3-phenylpropyl)propane-1-sulfonamide] | 58 | 1.6 |
| CCC(CNS(=O)(=O)CC(F)(F)F)C(c1ccccc1)c1ccc2c(cnn2-c2ccc(F)cc2)c1 (stereo not shown) [Example 98, 2,2,2-Trifluoro-N-(2-((1-(4-fluorophenyl)-1H-indazol-5-yl)(phenyl)methyl)butyl)ethanesulfonamide] | 17 | 3.7 |
| CCCC(CNS(=O)(=O)CC(F)(F)F)C(c1ccccc1)c1ccc2c(cnn2-c2ccc(F)cc2)c1 (stereo not shown) [Example 99, 2,2,2-Trifluoro-N-(2-((1-(4-fluorophenyl)-1H-indazol-5-yl)(phenyl)methyl)pentyl)ethanesulfonamide] | 40 | 6.1 |
| O=S(=O)(CC(F)(F)F)NCC(c1ccccc1)C(c1ccccc1)c1ccc2c(cnn2-c2ccc(F)cc2)c1 (stereo not shown) [Example 100, 2,2,2-Trifluoro-N-(3-(1-(4-fluorophenyl)-1H-indazol-5-yl)-2,3-diphenylpropyl)ethanesulfonamide] | 5000 | 18.3 |
| CCC(c1ccc2c(cnn2-c2ccc(F)cc2)c1)C(C)(C)CNC(=O)NC(C)(C)C (stereo not shown) [Example 101, 1-tert-butyl-3-(3-(1-(4-fluorophenyl)-1H-indazol-5-yl)-2,2-dimethylpentyl)urea] | 132 | 2.1 |
| CC(C)(C)NC(=O)NCC(C)(C)C(c1ccc2c(cnn2-c2ccc(F)cc2)c1)C1CC1 (stereo not shown) [Example 102, 1-tert-butyl-3-(3-cyclopropyl-3-(1-(4-fluorophenyl)-1H-indazol-5-yl)-2,2-dimethylpropyl)urea] | 691 | 8.4 |
| CC(C)C(c1ccc2c(cnn2-c2ccc(F)cc2)c1)C(C)(C)CNC(=O)NC(C)(C)C (stereo not shown) [Example 103, 1-tert-butyl-3-(3-(1-(4-fluorophenyl)-1H-indazol-5-yl)-2,2,4-trimethylpentyl)urea] | 349 | 5.9 |
| CCCC(c1ccc2c(cnn2-c2ccc(F)cc2)c1)C(C)(C)CNC(=O)NC(C)(C)C (stereo not shown) [Example 104, 1-tert-butyl-3-(3-(1-(4-fluorophenyl)-1H-indazol-5-yl)-2,2-dimethylhexyl)urea] | 23 | 2.1 |
| C=CCC(c1ccc2c(cnn2-c2ccc(F)cc2)c1)C(C)(C)CNC(=O)NC(C)(C)C (stereo not shown) [Example 105, 1-tert-butyl-3-(3-(1-(4-fluorophenyl)-1H-indazol-5-yl)-2,2-dimethylhex-5-enyl)urea] | 77 | 1.7 |
| CC(C)(C)NC(=O)NCC(C)(C)C(c1ccc2c(cnn2-c2ccc(F)cc2)c1)C1CCCC1 (stereo not shown) [Example 106, 1-tert-butyl-3-(3-cyclopentyl-3-(1-(4-fluorophenyl)-1H-indazol-5-yl)-2,2-dimethylpropyl)urea] | 304 | 3.3 |
| CC(C)(C)NC(=O)NCC(C)(C)C(CCCO)c1ccc2c(cnn2-c2ccc(F)cc2)c1 (stereo not shown) [Example 107, 1-tert-Butyl-3-(3-(1-(4-fluorophenyl)-1H-indazol-5-yl)-6-hydroxy-2,2-dimethylhexyl)urea] | 2020 | 3.1 |
| CC(C)(C)NC(=O)NCC(C)(C)C(CC1CC1)c1ccc2c(cnn2-c2ccc(F)cc2)c1 (stereo not shown) [Example 108, 1-tert-Butyl-3-(4-cyclopropyl-3-(1-(4-fluorophenyl)-1H-indazol-5-yl)-2,2-dimethylbutyl)urea] | 8.1 | 1.7 |
| CC(C)(CNC(=O)Nc1nccs1)C(C)(C)c1ccc2c(cnn2-c2ccc(F)cc2)c1 [Example 115, 1-(3-(1-(4-Fluorophenyl)-1H-indazol-5-yl)-2,2,3-trimethylbutyl)-3-(thiazol-2-yl)urea] | > 10000 | 16 |
| CC(C)(CNC(=O)Nc1ccccn1)C(C)(C)c1ccc2c(cnn2-c2ccc(F)cc2)c1 [Example 116, 1-(3-(1-(4-fluorophenyl)-1H-indazol-5-yl)-2,2,3-trimethylbutyl)-3-(pyridin-2-yl)urea] | > 10000 | 177 |
| CCNC(=O)NCC(C)(C)C(C)(C)c1ccc2c(cnn2-c2ccc(F)cc2)c1 [Example 117, 1-ethyl-3-(3-(1-(4-fluorophenyl)-1H-indazol-5-yl)-2,2,3-trimethylbutyl)urea] | > 10000 | 20 |
| CC(C)NC(=O)NCC(C)(C)C(C)(C)c1ccc2c(cnn2-c2ccc(F)cc2)c1 [Example 118, 1-(3-(1-(4-fluorophenyl)-1H-indazol-5-yl)-2,2,3-trimethylbutyl)-3-isopropylurea] | 2800 | 29 |
